The METLIN SMRT retention time set (Domingo-Almenara et al. 2019)

assay: gradient 5% acetonitrile 3 min, to 50% in 2 min, to 85% in 15 min, held 3 min, 100 µL/min; settings: column: Zorbax Extend-C18 2.1 x 50 mm; eluents: water / acetonitrile, 0.1% formic acid
Summary of the method: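 Retention times of pure standards were taken from adduct peaks that were selected by computer and manually inspected. Over 3 months, mixtures of ~100 molecules were run by HPLC–quadrupole time-of-flight mass spectrometry in positive and negative ionization mode. The Zorbax Extend-C18 column (2.1 × 50 mm, 1.8 μm) ran at 100 μL/min in water and acetonitrile, each containing 0.1% formic acid, with 40 μL dead volume and 900 μL dwell volume.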

Compound | RP-LC retention time [s]
CCCN1C(=O)COc2ccc(-c3noc(-c4ccn(CC)n4)n3)cc21 | 956
Cc1cccc(C)c1NC(=O)CN1CCCC1=O | 697
O=C1CCc2cc(NC(=O)C3CC3)ccc2N1 | 599
O=C(Nc1cnc(N2CCCCCC2)nc1)c1cc(F)ccc1F | 967
O=C(c1ccc(Cl)s1)N1CCC(n2cnnc2C2CC2)CC1 | 664
Cc1ccc(S(=O)(=O)N2C(=O)CCC2C(=O)NC2CCCCCCC2)cc1C (configuration not stated) | 1060
O=C(COc1ccc(Br)cc1)NCC(c1cccs1)N1CCCC1 (configuration not stated) | 672
O=C1COc2cc(S(=O)(=O)N3CCCC3C(=O)Nc3ccc4c(c3)OCCO4)c(Cl)cc2N1 (configuration not stated) | 734
CCC(CC)COC(=O)c1[nH]c2c(c1C)C(=O)CC(c1ccc(OC)c(OC)c1)C2 (configuration not stated) | 1140
Cc1cc(C)n(Cc2ccc(C(=O)N3CCC(c4noc(-c5cccnc5)n4)C3)o2)n1 (configuration not stated) | 696
CC1CCN(C(=O)c2nnc(-c3ccc(S(=O)(=O)N4CCCC4)cc3)o2)CC1 | 952
N#Cc1ccc(C(=O)N2CCC(CCOCC3CC3)CC2)cc1 | 862
Cc1cc(CN2CCc3nn(Cc4ccccc4)c(=O)n3CC2)n(C)n1 | 611
Cc1ccc(-c2nnc(-c3cccnc3N3CCC4(CC3)OCCO4)o2)cc1 | 962
COc1ccc(N2CCN(S(=O)(=O)N(C)C)CC2)cc1 | 736
CCOc1cc(=O)n2c(c1C(=O)N1CCCCCC1)CCCCC2 | 703
Cc1cc(C)cc(NC(=O)N2CCC(CN3CCCC(C)C3)CC2)c1 (configuration not stated) | 648
CCOc1cccc(-c2noc(-c3nnn(Cc4nc(-c5cccc(C)c5)oc4C)c3C)n2)c1 | 1410
O=C(N[C@@H]1CN(c2ncccn2)C[C@H]1CO)c1ccc(F)cn1 | 595
O=C(NC1CCCCC1)C1CCCN(c2nccn3nc(-c4ccccc4Cl)cc23)C1 (configuration not stated) | 976
O=C(Cn1nc(C(=O)N2CCOCC2)cc1C1CC1)NCCCN1CCCC1=O | 566
CC(C)CN(C1CCOCC1)C1CN(C(=O)c2cnccn2)C1 | 556
O=C(NCc1ccccn1)C1CCc2sc(C(=O)N3CCCCCC3)cc2C1 (configuration not stated) | 552
CCc1cccc(C)c1NC(=O)Cn1nc2n(c1=O)CCCCC2 | 700
CN1C(=O)CS(=O)(=O)C12CCN(C(=O)c1ccc3c(c1)OCO3)CC2 | 628
CCOc1ccc(S(=O)(=O)N2CCC3(CC2)CN(C)CC3c2nnc(CC)o2)cc1 (configuration not stated) | 638
CCCNC(=O)C1CCN(c2nccnc2Sc2cccc(C)c2)CC1 | 946
COc1cc([C@@H]2c3cc4c(cc3[C@H](O)C3COC(=O)[C@@H]32)OCO4)cc(OC)c1OC (some centres not stated) | 811
Cc1ccc(Cl)c(NC(=O)C2CCc3nc(N4CCOCC4)ncc3C2)c1 (configuration not stated) | 865
Cc1ccc(-c2noc(C3CCCN3S(=O)(=O)c3c(C)cc(C)cc3C)n2)cc1 (configuration not stated) | 1330

Results, then the compound that gave them:

RP-LC retention time [s] | Compound
840 | CCOc1ccc(/C=C2\NC(=S)NC2=O)cc1
719 | CSc1nnc(-c2nn(C)c3c2CN(C(=O)CCc2ccccc2)CC3)n1C
908 | CCN1C(=O)c2cc(NC(=O)c3ccc(Br)o3)ccc2Oc2ccccc21
606 | Cc1cccc2c(C(=O)NC3CC3)c3c(nc12)CCC3
776 | COCCN1C(=O)c2ccccc2C(C(=O)Nc2ccc(OC)c(OC)c2)C12CCCC2 (configuration not stated)
988 | COc1cccc(C(=O)N2CCc3cc(-c4csc(C)n4)ccc32)c1
921 | COc1ccc(OC)c(N2C=C(C#N)S(=O)(=O)c3ccc(F)cc32)c1
890 | O=C(c1cnn2c(-c3ccc4c(c3)OCO4)ccnc12)N1CCN(c2ccc(F)cc2)CC1
598 | Cc1nnc(-c2ccc3ccn(CC(=O)N4CCN(c5ccccn5)CC4)c3c2)o1
711 | Cn1cnc(S(=O)(=O)N2CCCN(S(=O)(=O)Cc3ccccc3)CCNC(=O)CC2c2ccccc2)c1 (configuration not stated)
714 | Cc1ccccc1CNC(=O)c1ccc2c(c1)CC(=O)N2C
682 | COc1ccc(-c2nc3ncccn3c2NCc2ccccc2)cc1OC
839 | Cc1ccc(NC(=O)C2CC(=O)N(c3n[nH]c4cc(Br)ccc34)C2)cc1 (configuration not stated)
847 | CCOc1ccc(NC(=O)Cn2cccc2-c2nnc(C3CC3)o2)cc1
843 | O=C(Cn1c(=O)c2cc(-c3ccco3)nn2c2ncccc21)Nc1ccc(F)c(F)c1
950 | CC(C)NC(=O)N(CC(=O)N1CCc2sccc2C1COc1cccc(F)c1)CC1CCCO1 (configuration not stated)
689 | CCC1CN2C=Nc3oc(C)c(C(=O)Nc4ccc(C)c(F)c4)c3C2=N1 (configuration not stated)
1030 | CCc1nn2c(CNC(=O)c3cc(C)cc(C)c3)c(-c3ccccc3)nc2s1
705 | Cc1ccc(NC(=O)CSc2ccc(N3CCCC(C(=O)NC4CC4)C3)nn2)c(Cl)c1 (configuration not stated)

RP-LC retention time [s] | Compound
741 | Clc1cccc(-c2ccc(CNCc3ccc4c(c3)OCO4)o2)c1
846 | Cc1[nH]c2ccccc2c1C(=O)C(=O)Nc1ccccc1F
1010 | O=C(NCc1ccc(F)cc1)N1CCN(c2nc3ccccc3nc2C(F)(F)F)CC1
788 | CCn1ncc(NC(=O)c2cccc(F)c2)c(N2CCOCC2)c1=O
592 | Cn1ncc2c3ccccc3n(CC(=O)NCCN3CCOCC3)c2c1=O
996 | Cc1cc(C)c(C(=O)N2CCCC(C(=O)N3CCN(c4cccc(C)c4C)CC3)C2)[nH]1 (configuration not stated)
912 | CCc1nn2c(CNC(=O)c3ccc(OC)c(F)c3)c(-c3ccccc3)nc2s1
773 | CCNC(=O)C1CCCN(C(=O)Nc2ccc(NC(=O)Nc3ccc(CC)cc3)cc2)C1 (configuration not stated)
578 | Cc1cc(F)ccc1NC(=O)CCNc1cnc2cnccn12
937 | CS(=O)(=O)c1ccc(-c2cnc(N)c(C(=O)Nc3ccccc3)n2)cc1
885 | COCCNC(=O)c1ccc2c(c1)CCCN2S(=O)(=O)c1ccc(Cl)cc1
786 | Cc1cc(N(CCO)Cc2ccccc2)n2nc(-c3ccccc3C)nc2n1
673 | O=S(=O)(c1cccc2c(I)cccc12)N1CCCNCC1
931 | Cc1cc(C)cc(C(=O)N2CCCC(COc3ccc(C(=O)NC(C)C)cc3)C2)c1 (configuration not stated)
1150 | CCc1ccc(S(=O)(=O)N2CCC(c3noc(-c4ccccc4C)n3)CC2)cc1
682 | CC(C)CNC(=O)c1ccc(-n2cc(CNC(=O)C3CC3)cn2)cc1
1030 | Cc1ccc(CNC(=O)Cn2cccc(-c3nc(-c4ccc(Br)cc4)no3)c2=O)cc1
744 | CCN1C(=O)C(C)(C(=O)Nc2ccc(C)cc2C)Oc2cccnc21 (configuration not stated)
